Here are results for 55 compounds from paper PMC5965259 (Journal of medicinal chemistry, 2018).

pEC50: −log10 of the molar value.

The test concerns bloodstream form T. brucei Lister 427. Kind of test: ATP–bioluminescence-based bloodstream form T. brucei cell viability assay. The conditions noted are these: Trypanosoma brucei, 48 h, read-out: Tb427 EC50.
In the case of `CCc1cc(Nc2cc(Cl)cc(Cl)c2)nc(N)n1` [Compound 9], the negative-log EC50 (pEC50) is 5.33. With `CC(C)c1cc(Nc2cc(Cl)cc(Cl)c2)nc(N)n1` [Compound 10], the pEC50 was 5.33. With `Nc1nc(Nc2cc(Cl)cc(Cl)c2)cc(-c2ccccc2)n1` [Compound 11], the pEC50 is 5.14. Consider `Nc1nc(Nc2cc(Cl)cc(Cl)c2)cc(N2CCOCC2)n1` [Compound 12], for which the pEC50 is 4.89. Consider `Nc1nc(Nc2cc(Cl)cc(Cl)c2)cc(C(F)(F)F)n1` [Compound 14], for which the pEC50 is 5.00. To `Nc1nc2c(c(Nc3cc(Cl)cc(Cl)c3)n1)CCC2` [Compound 15] belongs 4.72. On to `Cc1nc(N)nc(Nc2cc(Cl)cc(Cl)c2)c1C` [Compound 16], for which the pEC50 was 4.77. In the case of `Nc1cccc(Nc2cc(Cl)cc(Cl)c2)n1` [Compound 17], the pEC50 was 4.02. In the case of `Nc1ccnc(Nc2cc(Cl)cc(Cl)c2)c1` [Compound 18, N^2-(3,5-Dichlorophenyl)pyridine-2,4-diamine], the pEC50 was 4.42.

On to `Cc1cc(N)cc(Nc2cc(Cl)cc(Cl)c2)n1` [Compound 19, N^2-(3,5-Dichlorophenyl)-6-methylpyridine-2,4-diamine], for which the pEC50 was 4.89. With `Cc1cc(Nc2cc(Cl)cc(Cl)c2)cc(N)n1` [Compound 20, N^4-(3,5-Dichlorophenyl)-6-methylpyridine-2,4-diamine], the pEC50 is 5.66. `Nc1cnccc1Nc1cc(Cl)cc(Cl)c1` [Compound 22, N^4-(3,5-Dichlorophenyl)pyridine-3,4-diamine]: the pEC50 was 4.74. On to `CNc1nc(C)cc(Nc2cc(Cl)cc(Cl)c2)n1` [Compound 24, N^4-(3,5-Dichlorophenyl)-N^2,6-dimethylpyrimidine-2,4-diamine], for which the pEC50 was 5.57. In the case of `Cc1cc(Nc2cc(Cl)cc(Cl)c2)nc(N(C)C)n1` [Compound 25, N^4-(3,5-Dichlorophenyl)-N^2,N^2,6-trimethylpyrimidine-2,4-diamine] it was 4.85.

In the case of `Nc1cc(Nc2cc(Cl)cc(Cl)c2)nc(N)n1` [Compound 26, N^4-(3,5-Dichlorophenyl)pyrimidine-2,4,6-triamine], the pEC50 was 4.85. On to `Cc1nc(N)cc(Nc2cc(Cl)cc(Br)c2)n1` [Compound 27, N^4-(3-Bromo-5-chlorophenyl)-2-methylpyrimidine-4,6-diamine], for which the pEC50 is 4.70.

In the case of `Cc1cc(N(C)c2cc(Cl)cc(Cl)c2)nc(N)n1` [Compound 28, N^4-(3,5-Dichlorophenyl)-N^4,6-dimethylpyrimidine-2,4-diamine], the pEC50 is 4.42. As to `Cc1cc(Sc2cc(Cl)cc(Cl)c2)nc(N)n1` [Compound 29, 4-((3,5-Dichlorophenyl)thio)-6-methylpyrimidin-2-amine], the pEC50 is less than 4.60. With `Cc1cc(NCc2cc(Cl)cc(Cl)c2)nc(N)n1` [Compound 30, N^4-(3,5-Dichlorobenzyl)-6-methylpyrimidine-2,4-diamine], the pEC50 was 4.96.

Consider `Cc1cc(NCCc2cc(Cl)cc(Cl)c2)nc(N)n1` [Compound 31, N^4-(3,5-Dichlorophenethyl)-6-methylpyrimidine-2,4-diamine], for which the pEC50 is 5.24. In the case of `Cc1cc(Nc2cc(Cl)cc(Br)c2)nc(N)n1` [Compound 32, N^4-(3-Bromo-5-chlorophenyl)-6-methylpyrimidine-2,4-diamine], the pEC50 is 5.33.

Take `Cc1cc(Nc2cc(Cl)cc(C#N)c2)nc(N)n1` [Compound 33, 3-((2-Amino-6-methylpyrimidin-4-yl)amino)-5-chlorobenzonitrile]: the pEC50 is 4.92. `Cc1cc(Nc2cc(Cl)cc(C(F)(F)F)c2)nc(N)n1` [Compound 34, N^4-(3-Chloro-5-(trifluoromethyl)phenyl)-6-methylpyrimidine-2,4-diamine]: the pEC50 was 4.89. For the compound `Cc1cc(Nc2cc(Cl)cc(-c3ccccc3)c2)nc(N)n1` [Compound 35, N^4-(5-Chloro-[1,1′-biphenyl]-3-yl)-6-methylpyrimidine-2,4-diamine], the pEC50 is 5.35.

Take `Cc1cc(Nc2cc(Cl)cc(S(F)(F)(F)(F)F)c2)nc(N)n1` [Compound 36, N^4-(3-Chloro-5-(pentafluoro-λ^6-sulfaneyl)phenyl)-6-methylpyrimidine-2,4-diamine]: the pEC50 was 4.89. For the compound `Cc1cc(Nc2cc(Br)cc(S(F)(F)(F)(F)F)c2)nc(N)n1` [Compound 37, N^4-(3-Bromo-5-(pentafluoro-λ^6-sulfaneyl)phenyl)-6-methylpyrimidine-2,4-diamine], the pEC50 is 6.35. On to `CCc1cc(Br)cc(Nc2cc(C)nc(N)n2)c1` [Compound 38, N^4-(3-Bromo-5-ethylphenyl)-6-methylpyrimidine-2,4-diamine], for which the pEC50 is 5.26.

Take `CCOc1cc(Br)cc(Nc2cc(C)nc(N)n2)c1` [Compound 39, N^4-(3-Bromo-5-ethoxyphenyl)-6-methylpyrimidine-2,4-diamine]: the pEC50 is 5.36.

Take `Cc1cc(Nc2cc(Br)cc(OCC(F)(F)F)c2)nc(N)n1` [Compound 40, N^4-(3-Bromo-5-(2,2,2-trifluoroethoxy)phenyl)-6-methylpyrimidine-2,4-diamine]: the pEC50 was 5.38. Regarding `C=CCOc1cc(Br)cc(Nc2cc(C)nc(N)n2)c1` [Compound 41, N^4-(3-(Allyloxy)-5-bromophenyl)-6-methylpyrimidine-2,4-diamine], the pEC50 is 5.36. On to `CCCCOc1cc(Br)cc(Nc2cc(C)nc(N)n2)c1` [Compound 42, N^4-(3-Bromo-5-butoxyphenyl)-6-methylpyrimidine-2,4-diamine], for which the pEC50 was 5.72. For `Cc1cc(Nc2cc(Br)cc(OCC(C)C)c2)nc(N)n1` [Compound 43, N^4-(3-Bromo-5-isobutoxyphenyl)-6-methylpyrimidine-2,4-diamine], the pEC50 was 5.36.

As for `Cc1cc(Nc2cc(S(C)(=O)=O)cc(S(C)(=O)=O)c2)nc(N)n1` [Compound 45, N^4-(3,5-Bis(methylsulfonyl)phenyl)-6-methylpyrimidine-2,4-diamine], the pEC50 was less than 4.00. In the case of `Cc1cc(Nc2cc(C(F)(F)F)cc(C(F)(F)F)c2)nc(N)n1` [Compound 46, N^4-(3,5-Bis(trifluoromethyl)phenyl)-6-methylpyrimidine-2,4-diamine], the pEC50 was 4.85. With `COc1cc(Nc2cc(C)nc(N)n2)cc(OC)c1` [Compound 47, N^4-(3,5-Dimethoxyphenyl)-6-methylpyrimidine-2,4-diamine], the pEC50 is 4.39. Turning to `Cc1cc(Nc2cc(C(=O)O)cc(C(=O)O)c2)nc(N)n1` [Compound 48, 5-((2-Amino-6-methylpyrimidin-4-yl)amino)isophthalic acid], the pEC50 is less than 4.00. In the case of `COC(=O)c1cc(Nc2cc(C)nc(N)n2)cc(C(=O)OC)c1` [Compound 49, Dimethyl 5-((2-amino-6-methylpyrimidin-4-yl)amino)isophthalate], the pEC50 is 4.38. With `Cc1cc(Nc2cc(-c3ccccc3)cc(-c3ccccc3)c2)nc(N)n1` [Compound 50, N^4-([1,1′:3′,1″-Terphenyl]-5′-yl)-6-methylpyrimidine-2,4-diamine], the pEC50 is 5.82. `Cc1cc(Nc2cc(C(=O)Nc3cc(Cl)cc(Cl)c3)cc(C(=O)Nc3cc(Cl)cc(Cl)c3)c2)nc(N)n1` [Compound 51, 5-((2-Amino-6-methylpyrimidin-4-yl)amino)-N^1,N^3-bis(3,5-dichlorophenyl)isophthalamide]: the pEC50 was 5.70. In the case of `Cc1cc(C)cc(Nc2cc(C)nc(N)n2)c1` [Compound 52, N^4-(3,5-Dimethylphenyl)-6-methylpyrimidine-2,4-diamine] it was 4.72; in that of `Cc1cc(Nc2cc(C(C)(C)C)cc(C(C)(C)C)c2)nc(N)n1` [Compound 53, N^4-(3,5-Di-tert-butylphenyl)-6-methylpyrimidine-2,4-diamine], 5.39; in that of `Cc1cc(Nc2cccc(S(F)(F)(F)(F)F)c2)nc(N)n1` [Compound 54, 6-Methyl-N^4-(3-(pentafluoro-λ^6-sulfaneyl)phenyl)pyrimidine-2,4-diamine], 4.85.

In the case of `Cc1cc(Nc2cccc(Cl)c2)nc(N)n1` [Compound 55, N^4-(3-Chlorophenyl)-6-methylpyrimidine-2,4-diamine], the pEC50 was 4.38.

In the case of `Cc1cc(Nc2cccc(Br)c2)nc(N)n1` [Compound 56], the pEC50 was 4.66. To `Cc1cc(Nc2cccc(F)c2)nc(N)n1` [Compound 57] belongs less than 4.60; to `CSc1cccc(Nc2cc(C)nc(N)n2)c1` [Compound 58], less than 4.60; to `Cc1cc(Nc2ccccc2)nc(N)n1` [Compound 59], less than 4.60.

Consider `Cc1cc(Nc2cc(F)cc(F)c2)nc(N)n1` [Compound 60, N^4-(3,5-Difluorophenyl)-6-methylpyrimidine-2,4-diamine], for which the pEC50 is 4.15. Consider `Cc1cc(Nc2cc(F)cc(Cl)c2)nc(N)n1` [Compound 61, N^4-(3-Chloro-5-fluorophenyl)-6-methylpyrimidine-2,4-diamine], for which the pEC50 is 4.77. To `Cc1cc(Nc2cc(Br)c(F)c(Br)c2)nc(N)n1` [Compound 63, N^4-(3,5-Dibromo-4-fluorophenyl)-6-methylpyrimidine-2,4-diamine] belongs 5.34; to `Cc1cc(Nc2cc(Cl)c(Cl)c(Cl)c2)nc(N)n1` [Compound 64, 6-Methyl-N^4-(3,4,5-trichlorophenyl)pyrimidine-2,4-diamine], 5.35. Consider `Cc1cc(Nc2cc(Cl)c(C)c(Cl)c2)nc(N)n1` [Compound 65, N^4-(3,5-Dichloro-4-methylphenyl)-6-methylpyrimidine-2,4-diamine], for which the pEC50 was 5.36. To `Cc1cc(Nc2cc(Cl)c(Oc3ccccc3)c(Cl)c2)nc(N)n1` [Compound 66, N^4-(3,5-Dichloro-4-phenoxyphenyl)-6-methylpyrimidine-2,4-diamine] belongs 5.96.

Turning to `Cc1cc(Nc2cc(Cl)c(O)c(Cl)c2)nc(N)n1` [Compound 67, 4-((2-Amino-6-methylpyrimidin-4-yl)amino)-2,6-dichlorophenol], the pEC50 was 4.89.

As to `Cc1cc(Nc2cc(Cl)c(OC(F)F)c(Cl)c2)nc(N)n1` [Compound 68, N^4-(3,5-Dichloro-4-(difluoromethoxy)phenyl)-6-methylpyrimidine-2,4-diamine], the pEC50 was 5.35.

For orientation: pEC50 means the EC50 on a negative log10 scale, so that one unit is a factor of ten.
